According to patent US10370718B2, “Use of HLA genetic status to assess or select treatment of celiac disease” (ImmusanT, Inc., priority 2014, dated 2019):
Square brackets hold non-standard residues; d marks the D form. pGlu = O=C1CC[C@@H](C(=O)O)N1

Test system: circulating cytokines
Assay: Circulating cytokines/chemokines in plasma after dosing (MAGPIX multiplex platform)
Format: in vivo, human
Conditions: dose of 150 micrograms; same dose in both genotype groups
Protocol: 3 cohorts of subjects with HLA-DQ2.5+(heterozygous or homozygous) biopsy-proven Celiac disease on a gluten-free diet for at least 1 year were included in the study. The first cohort (Cohort 1) contained 12 subjects who were dosed with 150 mcg of a gluten peptide composition (an equimolar composition in sodium chloride 0.9% USP of 3 peptides: ELQPFPQPELPYPQPQ (SEQ ID NO: 9), EQPFPQPEQPFPWQP (SEQ ID NO: 10), and EPEQPIPEQPQPYPQQ (SEQ ID NO: 11), each peptide comprising an N-terminal pyroglutamate and C-terminal amidated amino acid) or a placebo (sodium chloride 0.9% USP) intradermally, twice a week for 8 weeks total. The second cohort (Cohort 2) contained 13 subjects who were dosed with 300 mcg of the gluten peptide composition or the placebo intradermally, twice a week for 8 weeks total. […] Both Cohorts 1 and 2 received an oral gluten challenge and were assessed for gamma-interferon (gIFN) release and then returned to baseline prior to starting the treatment regimen. […]
The progress of each subject before, during and after the trial was assessed using multiple tests including serology (tTG-IgA, DGP-IgG, DGP-IgA, and EMA-IgA), histology, and IFNg whole blood release assay, and cytokine/chemokines in plasma (measured by MAGPIX® multiplex platform). Plasma cytokines and chemokines were measured at several timepoints pre and post first and last dose. […]

gluten peptide composition: equimolar composition in sodium chloride 0.9% USP of 3 peptides (SEQ ID NO: 9, 10, 11), each with N-terminal pyroglutamate and C-terminal amidated amino acid (chain 1 [pGlu]LQPFPQPELPYPQPQ-NH2; chain 2 [pGlu]QPFPQPEQPFPWQP-NH2; chain 3 [pGlu]PEQPIPEQPQPYPQQ-NH2)
levels of circulating cytokines in response to administration, HLA-DQ2.5 homozygous subjects compared to subjects with other genotypes: generally increased levels of circulating cytokines
